Laboratory results: patent US7220721B1, “Exendin agonist peptides” (Amylin Pharmaceuticals, Inc., priority 1997, dated 2007)
pEC50, pIC50: −log10 of the molar value.

Columns and labels:
[1] = molecular target: GLP-1 receptor (on RINm5f membranes) (UniProt P32301)
cyclase (membranes) = assay: Cyclase activation study (cAMP SPA immunoassay); type: biochemical; conditions: cAMP in supernatant after 20 minutes incubation at 37° C. of membranes and peptides
Procedure: GLP-1[7–36]NH2 (GLP-1) was purchased from Bachem (Torrance, Calif.). All other peptides were prepared using synthesis methods such as those described therein. All chemicals were of the highest commercial grade. The cAMP SPA immunoassay was purchased from Amersham. The radioligands were purchased from New England Nuclear (Boston, Mass.). […] Cells were grown at 37° C. and 5% CO2/95% humidified air and medium was replaced every 2 to 3 days. Cells were grown to confluence then harvested and homogenized using on a Polytron homogenizer. Cell homogenates were stored frozen at −70° C. until used. Assay buffer contained 10 μM GTP, 0.75 mM ATP, 2.5 mM MgCl21 0.5 mM phosphocreatine, 12.5 U/ml creatine kinase, 0.4 mg/ml aprotinin, 1 μM IBMX in 50 mM HEPES, pH 7.4. Membranes and peptides were combined in […] of assay buffer in 96 well filter-bottom plates (Millipore Corp., Bedford, Mass.). […] Supernatant cAMP contents were quantitated by SPA immunoassay. […] The biological activity of a particular sample was expressed as an EC50 value, calculated as described above.

C57BLKS/J-m-db mice = assay: Determination of blood glucose levels in db/db mice; type: in vivo; conditions: percent decrease in plasma glucose from baseline one hour after subcutaneous injection of 1 μg

GLP-1 receptor (on RINm5f membranes), sequence (P32301 22-463 limits assumed): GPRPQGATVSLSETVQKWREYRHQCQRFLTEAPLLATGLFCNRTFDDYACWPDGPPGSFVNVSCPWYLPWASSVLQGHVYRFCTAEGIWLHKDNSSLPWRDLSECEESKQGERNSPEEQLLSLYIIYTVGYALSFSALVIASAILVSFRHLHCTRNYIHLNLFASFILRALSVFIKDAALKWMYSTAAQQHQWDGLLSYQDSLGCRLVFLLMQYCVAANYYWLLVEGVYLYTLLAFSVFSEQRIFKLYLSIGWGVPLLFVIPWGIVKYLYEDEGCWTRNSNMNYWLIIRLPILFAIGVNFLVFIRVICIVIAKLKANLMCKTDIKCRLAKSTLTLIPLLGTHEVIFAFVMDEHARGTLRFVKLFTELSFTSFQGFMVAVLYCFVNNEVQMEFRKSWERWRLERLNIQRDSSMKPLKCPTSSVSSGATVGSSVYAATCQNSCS

Molecule	pIC50 [1]	pEC50 (cyclase (membranes))	% drop in glucose (C57BLKS/J-m-db mice)
Exendin-4 [SEQ. ID. NO. 2] (peptide)	9.15	–	–
CC[C@H](C)[C@H](NC(=O)[C@H](Cc1ccccc1)NC(=O)[C@H](CC(C)C)NC(=O)[C@H](CCCNC(=N)N)NC(=O)[C@@H](NC(=O)[C@H](C)NC(=O)[C@H](CCC(=O)O)NC(=O)[C@H](CCC(=O)O)NC(=O)[C@H](CCC(=O)O)NC(=O)[C@H](CC(C)C)NC(=O)[C@H](CCC(N)=O)NC(=O)[C@H](CCCCN)NC(=O)[C@H](CO)NC(=O)[C@H](CC(C)C)NC(=O)[C@H](CC(=O)O)NC(=O)[C@H](CO)NC(=O)[C@@H](NC(=O)[C@H](Cc1ccccc1)NC(=O)[C@@H](NC(=O)CNC(=O)[C@H](CCC(=O)O)NC(=O)CNC(=O)[C@H](C)N)[C@@H](C)O)[C@@H](C)O)C(C)C)C(=O)N[C@@H](CCC(=O)O)C(=O)N[C@@H](Cc1ccccc1)C(=O)N[C@@H](CC(C)C)C(=O)N[C@@H](CCCCN)C(=O)N[C@@H](CC(N)=O)C(N)=O [Compound 1]	–	< 6.00	40%
CC[C@H](C)[C@H](NC(=O)[C@H](Cc1ccccc1)NC(=O)[C@H](CC(C)C)NC(=O)[C@H](CCCNC(=N)N)NC(=O)[C@@H](NC(=O)[C@H](C)NC(=O)[C@H](CCC(=O)O)NC(=O)[C@H](CCC(=O)O)NC(=O)[C@H](CCC(=O)O)NC(=O)[C@H](CC(C)C)NC(=O)[C@H](CCC(N)=O)NC(=O)[C@H](CCCCN)NC(=O)[C@H](CO)NC(=O)[C@H](CC(C)C)NC(=O)[C@H](CC(=O)O)NC(=O)[C@H](CO)NC(=O)[C@@H](NC(=O)[C@H](Cc1ccccc1)NC(=O)[C@@H](NC(=O)[C@H](C)NC(=O)[C@H](CCC(=O)O)NC(=O)CNC(=O)[C@@H](N)Cc1c[nH]cn1)[C@@H](C)O)[C@@H](C)O)C(C)C)C(=O)N[C@@H](CCC(=O)O)C(=O)N[C@@H](Cc1ccccc1)C(=O)N[C@@H](CC(C)C)C(=O)N[C@@H](CCCCN)C(=O)N[C@@H](CC(N)=O)C(N)=O [Compound 3]	–	< 5.00	32%
CC[C@H](C)[C@H](NC(=O)[C@H](Cc1ccccc1)NC(=O)[C@H](CC(C)C)NC(=O)[C@H](CCCNC(=N)N)NC(=O)[C@@H](NC(=O)[C@H](C)NC(=O)[C@H](CCC(=O)O)NC(=O)[C@H](CCC(=O)O)NC(=O)[C@H](CCC(=O)O)NC(=O)[C@H](CC(C)C)NC(=O)[C@H](CCC(N)=O)NC(=O)[C@H](CCCCN)NC(=O)[C@H](CO)NC(=O)[C@H](CC(C)C)NC(=O)[C@H](C)NC(=O)[C@H](CO)NC(=O)[C@@H](NC(=O)[C@H](Cc1ccccc1)NC(=O)[C@@H](NC(=O)CNC(=O)[C@H](CCC(=O)O)NC(=O)CNC(=O)[C@@H](N)Cc1c[nH]cn1)[C@@H](C)O)[C@@H](C)O)C(C)C)C(=O)N[C@@H](CCC(=O)O)C(=O)N[C@@H](Cc1ccccc1)C(=O)N[C@@H](CC(C)C)C(=O)N[C@@H](CCCCN)C(=O)N[C@@H](CC(N)=O)C(N)=O [Compound 4]	–	< 5.00	42%
CC[C@H](C)[C@H](NC(=O)[C@H](Cc1ccccc1)NC(=O)[C@H](CC(C)C)NC(=O)[C@H](CCCNC(=N)N)NC(=O)[C@@H](NC(=O)[C@H](C)NC(=O)[C@H](CCC(=O)O)NC(=O)[C@H](CCC(=O)O)NC(=O)[C@H](CCC(=O)O)NC(=O)[C@H](CC(C)C)NC(=O)[C@H](CCC(N)=O)NC(=O)[C@H](CCCCN)NC(=O)[C@H](CO)NC(=O)[C@H](CC(C)C)NC(=O)[C@H](CC(=O)O)NC(=O)[C@H](CO)NC(=O)[C@@H](NC(=O)[C@H](Cc1ccccc1)NC(=O)[C@@H](NC(=O)CNC(=O)[C@H](C)NC(=O)CNC(=O)[C@@H](N)Cc1c[nH]cn1)[C@@H](C)O)[C@@H](C)O)C(C)C)C(=O)N[C@@H](CCC(=O)O)C(=O)N[C@@H](Cc1ccccc1)C(=O)N[C@@H](CC(C)C)C(=O)N[C@@H](CCCCN)C(=O)N[C@@H](CC(N)=O)C(N)=O [Compound 2]	–	< 5.00	41%
